Measured values as given in patent publication US20150094283A1, “COMBINATION” (GlaxoSmithKline LLC, priority 2010, published 2015).

Test system: SKOV3 tumor xenografts (human ovarian carcinoma)
Experiment: Growth of SKOV3 tumor xenografts in SCID mice (tumor growth inhibition)
Type: in vivo
Details: PO, compared to vehicle treated mice
Protocol: Female SCID mice were implanted subcutaneously with 5×10^6 SKOV3 cells (human ovarian carcinoma). When the tumor volume reached 300-400 mm^3, mice were block randomized to different treatment groups (n=8 mice/group). Mice received the AKT inhibitor, Compound C as the free base, at 10 or 30 mg/kg, once daily (SID) for 21 days in 20% PEG-400, 1% DMSO in water. The VEGFR inhibitor, Compound A as the monohydrochloride salt, was administered at 100 mg/kg, twice/day (BID) for 21 days either alone or in combination with the AKT inhibitor. Mice were weighed and tumors measured by calipers twice weekly. Tumor volumes were calculated using the formula: tumor volume=(Length×Width^2)/2. The percentage of tumor growth inhibition was calculated on each day of tumor measurement using the formula: 100×[1−(average growth of the compound-treated tumors/average growth of vehicle-treated control tumors)]. Data is plotted as mean±sem for tumor volume for each group.

| Compound | Tumor Growth Inhibition (Compound A (monohydrochloride salt) 100 mg/kg, BID x21 d, 100 mg/kg) [%] | Tumor Growth Inhibition (Compound C (free base) 10 mg/kg, SID x21 d, 10 mg/kg) [%] | Tumor Growth Inhibition (Compound C (free base) 30 mg/kg, SID x21 d, 30 mg/kg) [%] |
| --- | --- | --- | --- |
| Cc1ccc(Nc2nccc(N(C)c3ccc4c(C)n(C)nc4c3)n2)cc1S(N)(=O)=O [Compound A, 5-[[4-[(2,3-dimethyl-2H-indazol-6-yl)methylamino]-2-pyrimidinyl]amino]-2-methylbenzenesulfonamide, reference compound] | 47 | – | – |
| Cn1ncc(Cl)c1-c1cc(C(=O)N[C@H](CN)Cc2ccc(F)c(F)c2)oc1Cl [Compound C, N-{(1S)-2-amino-1-[(3,4-difluorophenyl)methyl]ethyl}-5-chloro-4-(4-chloro-1-methyl-1H-pyrazol-5-yl)-2-furancarboxamide] | – | 86 | 67 |
